Key:
B. subtilis pol III [1] = target: T1, B. subtilis pol III (Bacillus subtilis, UniProt P13267); assay: 65Zn release from labeled pol III by MMTS (Sephadex G-25 separation); type: biochemical; conditions: 60 minutes, 0° C.
T1 construct: the so-called wild-type pol III, was identical to the native enzyme found in B. subtilis; made in house; host or cells: E. coli AR120, plasmid pKC30/polC
Experimental: Pol III was labeled by growing bacteria transformed with the above-described pol III expression plasmids in the presence of ^65Zn. LB expression medium was first depleted of divalent trace metals by mixing the medium with 0.3 volume of Chelex-Na (Bio-Rad) for 24 hours at 0° C. The depleted medium was then supplemented with 0.1 mM MgCl2 to support a level of E. coli growth compatible with pol III expression. E. coli AR120 transformed with the pKC30/polC vector was grown at 30° C. in this magnesium-supplemented medium. When the culture reached an absorbance of 0.5 ([…], 1 cm path length), 10 ml of the culture was added to one liter of the zinc-depleted, magnesium-supplemented medium, which further included [^65Zn]Cl2 (New England Nuclear; specific activity of 2.7 mCi/μmole) to a radioactivity level of 1.1 μCi/ml medium. Incubation was continued until the culture reached an absorbance of 0.75. […]
To remove non-specifically bound ^65Zn and exogenous thiols, the pol III was dialyzed as described in Example 1 above, and the labeled protein was further dialyzed with HNE buffer (10 mM HEPES [pH 7.6], 100 mM NaCl, and 0.1 mM EDTA) to remove exogenous thiols. […] The fraction eluted with each step was analyzed by liquid scintillation counting to determine the amount of protein-bound ^65Zn (void volume) and the amount of free ^65Zn (included volume).

B. subtilis pol III [2] = target: T1, B. subtilis pol III; assay: Polymerase activity of pol III after treatment with zinc-removing compound; type: biochemical; conditions: 0.2 mM MMTS, one hour
Experimental: (§1) Polymerase activity was determined as described in Barnes et al., Meth. Enzymol., 262:35-42, 1995, using activated calf thymus DNA (Worthington) as template and primer and [^3H]dTTP as the substrate. One unit of polymerase activity was defined as the activity which catalyzes the incorporation of one nanomole of [^3H]dTMP in 10 minutes at 30° C. For determination of the KM of the polymerase for DNA, the concentration of activated calf thymus DNA was varied during assay from 0-0.8 mg/ml. For determination of the KM for dGTP, incorporation of [^3H] dTMP was followed as a function of dGTP concentration (0-0.5 mM), and the values for incorporation were corrected for dGTP-independent, background incorporation.
(§2) 0.2 nanomoles of pol III was mixed in 0.1 ml of HNE buffer (10 mM HEPES, 100 mM NaCl, and 10% glycerol [pH 7.6]) containing 0.3 mM Compound 20, and the mixture was incubated at 25° C. for one hour. The pol III was removed from Compound 20 by passage through a Sephadex G-25 spin column, and the enzyme assayed for polymerase activity and for its content of radioactive zinc (see procedures described above).
Ejection of Zinc by Treatment of Coordinating Thiolates with MMTS. The compound MMTS is described in Example 2 above. […]

B. subtilis pol III [3] = target: T1, B. subtilis pol III; assay: Reconstitution of zinc-deficient inactive polymerase with ZnCl2/DTT; type: biochemical; conditions: pol III inactivated by MMTS; 0.01 mM ZnCl2 and 0.01 mM DTT, 25° C., 12 hours
Experimental: At 30 minute intervals, samples were removed and assayed for pol activity.

B. subtilis pol III [4] = target: T1, B. subtilis pol III; assay: Radioactive zinc content of 65Zn-labeled pol III after treatment with zinc-removing compound; type: biochemical; conditions: 0.2 mM MMTS, one hour
Experimental: as §2
Ejection of Zinc by Treatment of Coordinating Thiolates with MMTS. The compound MMTS is described in Example 2 above. 0.2 nanomoles of ^65Zn-labeled B. subtilis pol III was incubated with HNE buffer with or without 0.2 mM MMTS for one hour, and the samples assayed as described for the pol III treatment with Compound 20.

[5] = target: T2, H909A B. subtilis pol III (Bacillus subtilis, UniProt P13267, H909A); assay: TMAU sensitivity of polymerase activity, H909A mutant; type: biochemical; conditions: H909A enzyme
T2 construct: The H909A enzyme, although expressed as a full-length protein, was not readily produced in an amount sufficient for metal analysis; made in house; host or cells: E. coli SG101, plasmid pSGA04
Experimental: as §1
(§3) An oligonucleotide-based system (Altered Sites, Promega) was used to introduce the mutations into the segment of polC encoding the putative zinc finger. […]
(§4) Each of the five purified mutant enzymes of Table I was analyzed directly, in its native, undialyzed form, to assess the impact of the respective mutation on (1) exonuclease and polymerase activity; (2) affinity for exonuclease and polymerase substrates; and (3) sensitivity of the polymerase activity to TMAU, a dGTP analog which inhibits the pol III of Gram-positive eubacteria (Wright et al., Pharmac. Therap., 47:447-497, 1990).

[6] = target: T3, Wildtype B. subtilis pol III (Bacillus subtilis, UniProt P13267); assay: TMAU sensitivity of polymerase activity, wild-type enzyme; type: biochemical
T3 construct: made in house; host or cells: E. coli SG101, plasmid pSGA04
Experimental: as §1
Tagged wild-type and mutant forms of pol III were obtained at greater than 95% homogeneity using the procedure of Example 1 above. The proteins were then subjected to EDTA-based dialysis, and analyzed for zinc content as described in Example 1.
as §4

[7] = target: T4, C915A B. subtilis pol III (Bacillus subtilis, UniProt P13267, C915A); assay: TMAU sensitivity of polymerase activity, C915A mutant; type: biochemical; conditions: C915A enzyme
T4 construct: Each of the three full-length mutants (C912A, C915A, and C940A); made in house; host or cells: E. coli SG101, plasmid pSGA04
Experimental: as §1, §3, §4

[8] = target: T5, C940A B. subtilis pol III (Bacillus subtilis, UniProt P13267, C940A); assay: TMAU sensitivity of polymerase activity, C940A mutant; type: biochemical; conditions: C940A enzyme
T5 construct: Each of the three full-length mutants (C912A, C915A, and C940A); made in house; host or cells: E. coli SG101, plasmid pSGA04
Experimental: as §1, §3, §4

[9] = system: methicillin-sensitive S. aureus (ATCC No. 29213); assay: Thigh infection in neutropenic ICR/Swiss mice (Example 10); type: in vivo; conditions: 40 mg/kg i.v. at 2, 6, 12, 18 hours post-infection; 24 hours after infection; 100× diluted homogenate; saline controls about 500
Experimental: Before infection with test bacteria, six six-week old pathogen-free ICR/Swiss mice are rendered neutropenic (less than 100 neutrophils per milliliter of blood) by intraperitoneal injection of two doses of cyclophosphamide. The first injection is made at 150 mg/kg four days before bacterial infection, and the second injection is made at 100 mg/kg one day before bacterial infection. Neutropenia is induced so that a wide variety of bacteria can be used for the subsequent infection.
Bacterial infection for each mouse is performed by inoculating 10^6 cfu of methicillin-sensitive S. aureus (ATCC No. 29213) in 100 μl of media into the right thigh muscle. The compound and control mixtures are administered intravenously into the tail vein of the animal at 2, 6, 12, and 18 hours post-infection. Two mice received 50 μl of a negative control mixture of physiological saline at each time point. Another pair of mice received a positive control mixture of 40 mg/kg body weight vancomycin in saline at each time point. The last two mice received 40 mg/kg body weight of the candidate compound in saline at each time point.
At 24 hours after infection, all mice are sacrificed, and the right thigh muscle of each mice removed. […] After incubating at 37° C. for 24 hours, the number of colonies on each plate is counted. […]

S. aureus = conditions: 40 mg/kg intravenously every four hours; cited from earlier work

For `CSS(C)(=O)=O` [MMTS, methylmethanethio-sulfonate], which “65Zn label released from pol III” value (B. subtilis pol III [1]; 0.01 mM MMTS) is on record?
Its value is “about 50%”.

And the “65Zn label released from pol III” value (B. subtilis pol III [1]; three higher concentrations (0.03, 0.10, 0.3 mM MMTS))?
Its value is “greater than 95%”.

What about the “pol III activity relative to control” value (B. subtilis pol III [2]) of the same compound?
The value was “less than 1 % of the control”.

And the “reactivation of pol activity after treatment” value (B. subtilis pol III [3])?
The value was “No reactivation”.

And the “radioactive zinc content relative to control” value (B. subtilis pol III [4])?
Its value is “less than 2 % of the control”.

Which results are given for `O=c1cc(Nc2ccc3c(c2)CCC3)[nH]c(=O)[nH]1` [TMAU]?
IC50 [5]: 4 µM; IC50 [6]: 4.1 µM; IC50 [7]: 2.9 µM; IC50 [8]: 4 µM

Which results are given for `CN[C@H](CC(C)C)C(=O)N[C@H]1C(=O)N[C@@H](CC(N)=O)C(=O)N[C@H]2C(=O)N[C@H]3C(=O)N[C@H](C(=O)N[C@H](C(=O)O)c4cc(O)cc(O)c4-c4cc3ccc4O)[C@H](O)c3ccc(c(Cl)c3)Oc3cc2cc(c3O[C@@H]2O[C@H](CO)[C@@H](O)[C@H](O)[C@H]2O[C@H]2C[C@](C)(N)[C@H](O)[C@H](C)O2)Oc2ccc(cc2Cl)[C@H]1O` [vancomycin]?
colonies from thigh muscle homogenate [9]: about 40 colonies on each plate; reduction in S. aureus proliferation compared with control thighs (S. aureus): two to four
